Data reported in US20230405011A1, “COMBINATION THERAPY FOR THE TREATMENT OF CANCER” (Novartis AG, priority 2013, published 2023).

Assay: Phase Ib/II trial of Example 5: pharmacokinetics
Assay type: in vivo

| EVE exposure at steady state (in vivo) | effect of EVE on Compound A1 exposure (preliminary PK analysis) | absorption (steady state (C1D15), Compound A1+EVE+EXE) | Structure (SMILES) |
| --- | --- | --- | --- |
| increased |  |  | CO[C@H]1C[C@@H]2CC[C@@H](C)[C@@](O)(O2)C(=O)C(=O)N2CCCC[C@H]2C(=O)O[C@H]([C@H](C)C[C@@H]2CC[C@@H](OCCO)[C@H](OC)C2)CC(=O)[C@H](C)/C=C(\C)[C@@H](O)[C@@H](OC)C(=O)[C@H](C)C[C@H](C)/C=C/C=C/C=C/1C [EVE, Everolimus, reference compound] |
|  | does not affect | rapidly absorbed | CN(C)C(=O)c1cc2cnc(Nc3ccc(N4CCNCC4)cn3)nc2n1C1CCCC1 [Compound A1, 7-Cyclopentyl-2-(5-piperazin-1-yl-pyridin-2-ylamino)-7H-pyrrolo[2,3-d]pyrimidine-6-carboxylic acid dimethylamide] |
